Measured values published in patent US20090143279A1 (priority 2007, published 2009).
Like-named read-outs stand apart in the source and are kept apart here.

What was measured:
[1] = tested on: C2C12 myotubes
[2] = tested on: nuOXPHOS transcripts; assay type: cell-based, mouse
[3] = tested on: cytochrome c; assay type: cell-based, mouse
[4] = tested on: reactive oxygen species; assay type: cell-based, mouse
[5] = tested on: mitochondrial membrane potential; assay type: cell-based, mouse
[6] = tested on: OXPHOS gene expression; assay type: cell-based, mouse
[7] = tested on: cellular dehydrogenase activity
[8] = tested on: mtOXPHOS transcripts; assay type: cell-based, mouse
[9] = normalized composite Z-score vs mock-treated (DMSO) wells, Conc 20 μM
[10] = Table 7, C2C12 myotubes, 48 h, composite Z-score
[11] = composite Z-score vs mock-treated (DMSO) wells, Conc 20 μM
[12] = Conc 20 μM, normalized score vs mock-treated (DMSO) wells
[13] = composite Z-score vs DMSO, Conc 20 μM
[14] = composite Z-score vs mock-treated (DMSO) wells, concentration of each compound in μM
[15] = 20 μM, composite Z-score vs DMSO

Sequence of cytochrome c (P62897 whole entry): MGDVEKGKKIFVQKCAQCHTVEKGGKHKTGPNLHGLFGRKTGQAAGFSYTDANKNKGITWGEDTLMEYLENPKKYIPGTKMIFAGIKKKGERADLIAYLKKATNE

COc1ccc2c(=O)c(CC(=O)O)coc2c1 [anhydrobrazilic acid, reference compound] was tested, and the Viability [1, 9] was −0.072, the “nucOXPHOS Z” value [2, 10] was 1.56 and the nucOX [2, 9] was 1.559. For the same molecule, the cyt c [3, 9] was 0.579, the ROS [4, 9] was 0.388 and the ΔΨm [5, 9] was −0.353. For the same molecule, the GE-HTS [6, 9] was 1.730, the MTT [7, 9] was −1.007 and the “mito-OXPHOS Z” value [8, 10] was 1.68. It also gave a mitoOX [8, 9] of 1.678.

COc1ccc([C@@H](C)C(=O)c2ccc(O)cc2O)cc1 [(R)-angolensin] showed a Viability [1, 11] of −0.164, a nucOX [2, 11] of 0.703 and a cyt c [3, 11] of −0.063. The ROS [4, 11] was 0.225, the ΔΨm [5, 11] was −0.444 and the GE-HTS [6, 11] was 0.403. It also gave an MTT [7, 11] of −0.743 and a mitoOX [8, 11] of −0.245.

With COc1ccc(-c2coc3cc(O)cc(O)c3c2=O)cc1 [biochanin A] the “Viability (composite Z-score)” value [1, 12] was 0.987, the “nucOX (composite Z-score)” value [2, 12] was −0.459 and the “cyt c (composite Z-score)” value [3, 12] was −0.416. The “ROS (composite Z-score)” value [4, 12] was 0.623, the “ΔΨm (composite Z-score)” value [5, 12] was 0.033 and the “GE-HTS (composite Z-score)” value [6, 12] was −0.324. For the same molecule, the “MTT (composite Z-score)” value [7, 12] was −0.325 and the “mitoOX (composite Z-score)” value [8, 12] was −0.042.

Molecule “3alpha-hydroxy-3-deoxyangolensic acid methyl ester” has a Viability [1, 11] of 0.949, a nucOX [2, 11] of −0.474 and a cyt c [3, 11] of −0.141. For the same molecule, the ROS [4, 11] was 0.799, the ΔΨm [5, 11] was −0.043 and the GE-HTS [6, 11] was −0.456. For the same molecule, the MTT [7, 11] was −1.268 and the mitoOX [8, 11] was −0.377.

Work on C[C@]12CCC(=O)C=C1CC[C@@H]1[C@@H]2C(=O)C[C@@]2(C)[C@H]1CC[C@]2(O)C(=O)CO [cortisone] yielded a Viability [1, 13] of 0.644, a nucOX [2, 13] of −0.165 and a cyt c [3, 13] of −0.078. The ROS [4, 13] was 0.527, the ΔΨm [5, 13] was −0.232 and the GE-HTS [6, 13] was −0.428. It also gave an MTT [7, 13] of −0.146 and a mitoOX [8, 13] of −0.830.

For C/C=C(\C)C(=O)O[C@H]1C[C@@H](OC(C)=O)[C@@]2(C(=O)OC)CO[C@H]3[C@@H](O)[C@@](C)([C@]45O[C@@]4(C)[C@H]4C[C@@H]5O[C@@H]5OC=C[C@@]54O)[C@H]4[C@]1(CO[C@]4(O)C(=O)OC)[C@@H]32 [azadirachtin], the Viability [1, 13] was −0.479, the nucOX [2, 13] was 0.152 and the cyt c [3, 13] was −0.421. For the same molecule, the ROS [4, 13] was 0.494, the ΔΨm [5, 13] was −0.670 and the GE-HTS [6, 13] was 0.119. The MTT [7, 13] was −1.018 and the mitoOX [8, 13] was 0.042.

With O=c1c(O)cccc2c([C@H]3Oc4cc(O)cc(O)c4C[C@H]3O)cc(O)c(O)c12 [theaflavanin] the “Viability (composite Z-score)” value [1, 12] was −1.349, the “nucOX (composite Z-score)” value [2, 12] was −0.764 and the “cyt c (composite Z-score)” value [3, 12] was −0.166. For the same molecule, the “ROS (composite Z-score)” value [4, 12] was −0.040, the “ΔΨm (composite Z-score)” value [5, 12] was −2.074 and the “GE-HTS (composite Z-score)” value [6, 12] was −0.695. The “MTT (composite Z-score)” value [7, 12] was −0.665 and the “mitoOX (composite Z-score)” value [8, 12] was −0.333.

COc1ccc(-c2cc(=O)c3c(O)c(OC)c(O[C@@H]4O[C@H](CO[C@@H]5O[C@@H](C)[C@H](O)[C@@H](O)[C@H]5O)[C@@H](O)[C@H](O)[C@H]4O)cc3o2)cc1 [pectolinarin] gave a Viability [1, 9] of −0.100, a nucOX [2, 9] of −1.292 and a cyt c [3, 9] of −0.739. The ROS [4, 9] was 1.058, the ΔΨm [5, 9] was −0.280 and the GE-HTS [6, 9] was −1.381. It also gave an MTT [7, 9] of −0.475 and a mitoOX [8, 9] of −1.349.

With CC12CCCC(O)(C1)C1CC(C)(C)C1CC2 (stereo not drawn) [beta-caryophyllene alcohol] the Viability [1, 9] was −0.960, the nucOX [2, 9] was 0.105 and the cyt c [3, 9] was −1.030. It also gave an ROS [4, 9] of 1.180, a ΔΨm [5, 9] of −0.433 and a GE-HTS [6, 9] of 0.155. For the same molecule, the MTT [7, 9] was −1.859 and the mitoOX [8, 9] was 0.264.

OC[C@H]1O[C@@](CO)(O[C@H]2O[C@H](CO)[C@@H](O)[C@H](O)[C@H]2O)[C@@H](O[C@H]2O[C@H](CO)[C@@H](O)[C@H](O)[C@H]2O)[C@@H]1O [melezitose] showed a Viability [1, 9] of −0.843, a nucOX [2, 9] of 0.054 and a cyt c [3, 9] of 0.284. The ROS [4, 9] was −0.125, the ΔΨm [5, 9] was −0.605 and the GE-HTS [6, 9] was −0.502. The MTT [7, 9] was −0.968 and the mitoOX [8, 9] was −1.553.

In the case of COC(=O)c1c(C)c2c(c(C)c1OC)OC(=O)c1c(C)c(Cl)c(OC)c(Cl)c1O2 [leoidin dimethyl ether], the Viability [1, 9] is reported as 0.677, the nucOX [2, 9] is reported as −0.595 and the cyt c [3, 9] is reported as 1.032. For the same molecule, the ROS [4, 9] was −0.121, the ΔΨm [5, 9] was −0.320 and the GE-HTS [6, 9] was −1.008. It also gave an MTT [7, 9] of −0.726 and a mitoOX [8, 9] of −1.691.

CN1Cc2c(ccc3c2OCO3)[C@@H]2[C@H]1c1cc3c(cc1C[C@@H]2O)OCO3 [(+)-chelidonine] gave a Viability [1, 14] of −1.005, a nucOX [2, 14] of 0.901 and a cyt c [3, 14] of −1.144. For the same molecule, the ROS [4, 14] was −1.486, the ΔΨm [5, 14] was −1.123 and the GE-HTS [6, 14] was 0.941. The MTT [7, 14] was −1.988 and the mitoOX [8, 14] was 0.836.

In the case of CC(=O)O[C@@H]1CC2C(C)(C)C(=O)[C@@H]3O[C@@H]3[C@]2(C)C2CC[C@]3(C)C(=CC(=O)O[C@H]3c3ccoc3)[C@@]21C (stereo partly drawn) [1 (2)alpha-epoxydeoxydihydrogedunin], the Viability [1, 9] is reported as 0.015, the nucOX [2, 9] is reported as −0.831 and the cyt c [3, 9] is reported as 0.022. For the same molecule, the ROS [4, 9] was 2.784, the ΔΨm [5, 9] was 0.074 and the GE-HTS [6, 9] was −0.801. It also gave an MTT [7, 9] of −1.048 and a mitoOX [8, 9] of −0.539.

In the case of CN[C@H]1C[C@@H](N)[C@H](O)[C@@H](O[C@@H]2O[C@H](CO)[C@H](O)[C@@H]3OC4(O[C@H]23)O[C@H]([C@@H](N)CO)[C@H](O)[C@H](O)[C@H]4O)[C@@H]1O (stereo partly drawn) [hygromycin B], the Viability [1, 14] is reported as −1.526, the nucOX [2, 14] is reported as 0.800 and the cyt c [3, 14] is reported as −0.478. For the same molecule, the ROS [4, 14] was 0.707, the ΔΨm [5, 14] was −0.752 and the GE-HTS [6, 14] was 0.558. The MTT [7, 14] was −2.041 and the mitoOX [8, 14] was −0.054.

In the case of CN[C@@H](Cc1c[nH]c2ccccc12)C(=O)O [abrine], the “Viability (composite Z-score)” value [1] is reported as 0.206, the “nucOX (composite Z-score)” value [2] is reported as 0.430 and the “cyt c (composite Z-score)” value [3] is reported as −0.094. The “ROS (composite Z-score)” value [4] was 1.698, the “ΔΨm (composite Z-score)” value [5] was −0.332 and the “GE-HTS (composite Z-score)” value [6] was 0.459. For the same molecule, the “MTT (composite Z-score)” value [7] was −1.203 and the “mitoOX (composite Z-score)” value [8] was 0.383.

In the case of CC1=C(/C=C/C(C)=C/C=C/C(C)=C/C=C/C=C(C)/C=C/C=C(C)/C=C/[C@@]23O[C@]2(C)C[C@@H](O)CC3(C)C)C(C)(C)C[C@H](O)C1 [antheraxanthin], the Viability [1, 9] is reported as −0.496, the nucOX [2, 9] is reported as 0.026 and the cyt c [3, 9] is reported as −0.206. It also gave an ROS [4, 9] of 0.244, a ΔΨm [5, 9] of −0.305 and a GE-HTS [6, 9] of 0.013. For the same molecule, the MTT [7, 9] was −0.804 and the mitoOX [8, 9] was −0.011.

Molecule COC(=O)C[C@H]1C(C)(C)[C@@H](O)[C@@H]2CC3=C4CC(O)O[C@@H](c5ccoc5)[C@]4(C)CCC3[C@@]1(C)C2=O (stereo partly drawn) [3,16-dideoxymexicanolide-3beta-diol] has a Viability [1, 9] of −0.384, a nucOX [2, 9] of 0.282 and a cyt c [3, 9] of −0.130. For the same molecule, the ROS [4, 9] was 0.587, the ΔΨm [5, 9] was 0.154 and the GE-HTS [6, 9] was 0.150. The MTT [7, 9] was −1.091 and the mitoOX [8, 9] was −0.202.

CCCN(CCC)C(=O)C(CCC(=O)O)NC(=O)c1ccccc1 (stereo not drawn) [proglumide] showed a Viability [1, 15] of −0.750, a nucOX [2, 15] of −0.394 and a cyt c [3] of −0.001. It also gave a cyt c [3, 15] of −0.033, an ROS [4, 15] of 2.083 and a ΔΨm [5, 15] of −0.910. For the same molecule, the GE-HTS [6, 15] was −0.541, the MTT [7, 15] was −1.254 and the mitoOX [8, 15] was −0.730.
